From the NIST ThermoML archive (doi:10.1016/j.jct.2019.02.015)

Experiments:
[1] = 101.33 kPa, Liquid; for speed of sound: Single path-length method; for mass density: Vibrating tube method
[2] = refractive index (Na D-line) (dimensionless); conditions: 101.33 kPa, Liquid, Standard Abbe refractometry
[3] = wn = mass fraction of the nth substance listed; conditions: 298.15 K, 100 kPa, Liquid; for viscosity: Falling or rolling sphere viscometry; for speed of sound: Frequency=3 MHz, Single path-length method; for mass density: Vibrating tube method
[4] = refractive index (Na D-line) (dimensionless); wn = mass fraction of the nth substance listed; conditions: 298.15 K, 100 kPa, Liquid, Standard Abbe refractometry

CCCC(=O)[O-].CCCCCC[NH+](CCCCCC)CCCCCC [trihexylammonium butanoate]
viscosity [mPa·s], [1]
Conditions | Cone and plate viscometry | Falling or rolling sphere viscometry
293.15 K | – | 13.26
298.15 K | 11.52 | 10.91
303.15 K | – | 9.09
308.15 K | – | 7.66
313.15 K | – | 6.52
318.15 K | – | 5.6
323.15 K | – | 4.85
328.15 K | – | 4.24
333.15 K | – | 3.73
338.15 K | – | 3.3
343.15 K | – | 2.94

Conditions | mass density, [1] [kg/m3] | refractive index, [2] | speed of sound, [1] [m/s]
293.15 K | 848.02 | 1.4419 | 1345
298.15 K | 844.32 | 1.44 | 1326.7
303.15 K | 840.63 | 1.438 | 1308.6
308.15 K | 836.93 | 1.4361 | 1290.7
313.15 K | 833.22 | 1.4342 | 1273
318.15 K | 829.5 | 1.4322 | 1255.5
323.15 K | 825.78 | 1.4302 | 1238.1
328.15 K | 822.04 | 1.4282 | 1221
333.15 K | 818.3 | 1.4262 | 1204
338.15 K | 814.54 | 1.4241 | 1187.3
343.15 K | 810.76 | 1.4221 | 1171.3

CCCCCC(=O)[O-].CCCCCC[NH+](CCCCCC)CCCCCC [trihexylammonium hexanoate]
viscosity [mPa·s], [1]
Conditions | Cone and plate viscometry | Falling or rolling sphere viscometry
293.15 K | – | 13.86
298.15 K | 12.53 | 11.44
303.15 K | – | 9.55
308.15 K | – | 8.05
313.15 K | – | 6.86
318.15 K | – | 5.9
323.15 K | – | 5.11
328.15 K | – | 4.48
333.15 K | – | 3.95
338.15 K | – | 3.5
343.15 K | – | 3.12

Conditions | mass density, [1] [kg/m3] | refractive index, [2] | speed of sound, [1] [m/s]
293.15 K | 849.82 | 1.4432 | 1353.3
298.15 K | 846.21 | 1.4412 | 1335.7
303.15 K | 842.59 | 1.4395 | 1317.8
308.15 K | 838.96 | 1.4375 | 1300.1
313.15 K | 835.33 | 1.4355 | 1282.2
318.15 K | 831.69 | 1.4336 | 1264.9
323.15 K | 828.04 | 1.4315 | 1247.7
328.15 K | 824.38 | 1.4297 | 1230.6
333.15 K | 820.72 | 1.4278 | 1213.7
338.15 K | 817.03 | 1.4258 | 1196.9
343.15 K | 813.33 | 1.4238 | 1180.3

CCCCCCCC(=O)[O-].CCCCCC[NH+](CCCCCC)CCCCCC [trihexylammonium octanoate]
viscosity [mPa·s], [1]
Conditions | Cone and plate viscometry | Falling or rolling sphere viscometry
293.15 K | – | 17.02
298.15 K | 15.9 | 13.93
303.15 K | – | 11.55
308.15 K | – | 9.68
313.15 K | – | 8.21
318.15 K | – | 7.02
323.15 K | – | 6.06
328.15 K | – | 5.27
333.15 K | – | 4.62
338.15 K | – | 4.1
343.15 K | – | 3.65

Conditions | mass density, [1] [kg/m3] | refractive index, [2] | speed of sound, [1] [m/s]
293.15 K | 851.2 | 1.4459 | 1365.7
298.15 K | 847.63 | 1.4441 | 1347.7
303.15 K | 844.06 | 1.4419 | 1329.8
308.15 K | 840.48 | 1.4399 | 1312.2
313.15 K | 836.9 | 1.4381 | 1294.7
318.15 K | 833.31 | 1.4359 | 1277.4
323.15 K | 829.72 | 1.4341 | 1260.2
328.15 K | 826.11 | 1.4322 | 1243.2
333.15 K | 822.5 | 1.4299 | 1226.5
338.15 K | 818.87 | 1.4278 | 1209.9
343.15 K | 815.25 | 1.4258 | 1194

CCCC(=O)[O-].CCCCCCCC[NH+](CCCCCCCC)CCCCCCCC [trioctylammonium butanoate]
viscosity [mPa·s], [1]
Conditions | Cone and plate viscometry | Falling or rolling sphere viscometry
293.15 K | – | 17.82
298.15 K | 16.03 | 14.55
303.15 K | – | 12.06
308.15 K | – | 10.09
313.15 K | – | 8.55
318.15 K | – | 7.3
323.15 K | – | 6.3
328.15 K | – | 5.49
333.15 K | – | 4.82
338.15 K | – | 4.28
343.15 K | – | 3.82

Conditions | mass density, [1] [kg/m3] | refractive index, [2] | speed of sound, [1] [m/s]
293.15 K | 845.71 | 1.4474 | 1377.6
298.15 K | 842.19 | 1.4456 | 1359.6
303.15 K | 838.68 | 1.4437 | 1341.8
308.15 K | 835.16 | 1.4417 | 1324.2
313.15 K | 831.64 | 1.4395 | 1306.8
318.15 K | 828.12 | 1.4376 | 1289.6
323.15 K | 824.59 | 1.4356 | 1272.5
328.15 K | 821.05 | 1.4339 | 1255.6
333.15 K | 817.51 | 1.4319 | 1239
338.15 K | 813.96 | 1.43 | 1222.5
343.15 K | 810.41 | 1.428 | 1206.8

CCCCCC(=O)[O-].CCCCCCCC[NH+](CCCCCCCC)CCCCCCCC [trioctylammonium hexanoate]
viscosity [mPa·s], [1]
Conditions | Cone and plate viscometry | Falling or rolling sphere viscometry
293.15 K | – | 20.58
298.15 K | 20.59 | 16.72
303.15 K | – | 13.76
308.15 K | – | 11.47
313.15 K | – | 9.64
318.15 K | – | 8.19
323.15 K | – | 7.04
328.15 K | – | 6.09
333.15 K | – | 5.32
338.15 K | – | 4.67
343.15 K | – | 4.14

Conditions | mass density, [1] [kg/m3] | refractive index, [2] | speed of sound, [1] [m/s]
293.15 K | 848.02 | 1.4489 | 1384
298.15 K | 844.54 | 1.4469 | 1366.2
303.15 K | 841.06 | 1.4451 | 1348.5
308.15 K | 837.58 | 1.4432 | 1331
313.15 K | 834.1 | 1.4413 | 1313.8
318.15 K | 830.61 | 1.4394 | 1296.6
323.15 K | 827.12 | 1.4375 | 1279.7
328.15 K | 823.62 | 1.4353 | 1262.9
333.15 K | 820.12 | 1.4336 | 1246.4
338.15 K | 816.62 | 1.4316 | 1230.1
343.15 K | 813.12 | 1.4294 | 1214.5

CCCCCC(=O)[O-].CCCCCCCC[NH+](CCCCCCCC)CCCCCCCC [trioctylammonium hexanoate] + O
Conditions | mass density, [3] [kg/m3] | refractive index, [4] | speed of sound, [3] [m/s] | viscosity, [3] [mPa·s]
w2 = 0.00078 | 844.54 | 1.4469 | 1366.2 | 16.72
w2 = 0.001285 | 844.88 | – | 1366.9 | 15.89
w2 = 0.001301 | – | 1.4465 | – | –
w2 = 0.002315 | 845.44 | – | 1367.8 | 14.49
w2 = 0.002627 | – | 1.4458 | – | –
w2 = 0.003049 | – | 1.4455 | – | –
w2 = 0.003128 | 845.81 | – | 1368.8 | 13.68

CCCCCCCC(=O)[O-].CCCCCCCC[NH+](CCCCCCCC)CCCCCCCC [trioctylammonium octanoate]
viscosity [mPa·s], [1]
Conditions | Cone and plate viscometry | Falling or rolling sphere viscometry
293.15 K | – | 25.02
298.15 K | 25.07 | 20.3
303.15 K | – | 16.63
308.15 K | – | 13.85
313.15 K | – | 11.6
318.15 K | – | 9.84
323.15 K | – | 8.38
328.15 K | – | 7.26
333.15 K | – | 6.33
338.15 K | – | 5.54
343.15 K | – | 4.92

Conditions | mass density, [1] [kg/m3] | refractive index, [2] | speed of sound, [1] [m/s]
293.15 K | 849.68 | 1.4505 | 1393.1
298.15 K | 846.22 | 1.4484 | 1375.3
303.15 K | 842.77 | 1.4464 | 1357.6
308.15 K | 839.31 | 1.4447 | 1340.1
313.15 K | 835.85 | 1.4426 | 1322.8
318.15 K | 832.38 | 1.4406 | 1305.7
323.15 K | 828.91 | 1.4389 | 1288.8
328.15 K | 825.44 | 1.4369 | 1272
333.15 K | 821.95 | 1.4348 | 1255.5
338.15 K | 818.47 | 1.4329 | 1239.2
343.15 K | 815.03 | 1.4309 | 1223.7
